# Marks after values point to notes of the source that are not given here.
# Key:
# [1] = system: IGR-OV1 human ovary carcinoma cells; experiment: In-vitro antiproliferative activity, MTT test; type: cell-based; settings: 5 days treatment, MTT on day 6, read-out: IC50, concentration necessary to reduce cell growth to 50% of control
# Method: (§1) Antiproliferative activity of the conjugates was determined on 2 lines of human mammary carcinoma (MCF-7, MDA-MB-231), and on 2 lines of human ovary carcinoma (SK-OV-3, IGR-OV1) with different Reduced Folate Carrier (RFC) expression, and on a non-tumour line originating from healthy mammary ductal epithelium (HBL-100 line). Cells were incubated in 96-well plates for 5 days in complete medium (consisting of DMEM/F12, with 10% FBS, foetal bovine serum, 1% L-glutamine 100× (200 mM) and 1% penicillin-streptomycin (Euroclone) for MCF-7, IGROV-1 and MDA-MB-231; RPMI-1640 with 10% FBS, foetal bovine serum, 1% L-glutamine 100× (200 mM) and 1% penicillin-streptomycin (Euroclone) for SKOV-1; McCoy's with 10% FBS, foetal bovine serum, 1% L-glutamine 100× (200 mM) and 1% penicillin-streptomycin (Sigma) for HBL-100 at 37° C. and controlled atmosphere (5% CO2), with MTX-Na or with conjugate; the conjugates were tested at doses equimolar with those of MTX-Na, in the range 1-30 nM. Cytotoxicity was determined on day 6 (after 5 days treatments) by the MTT test, by measuring cell viability as the cell metabolic capacity to transform the tetrazolium salt of MTT in the blue formazan, by mitochondrial dehydrogenases; the blue colour is read at 570 nm with a spectrophotometer. The following conjugates were tested.
# [2] = system: MCF-7 human mammary carcinoma cells; experiment: In-vitro antiproliferative activity, MTT test; type: cell-based; settings: 5 days treatment, MTT on day 6, read-out: IC50, concentration necessary to reduce cell growth to 50% of control
# Method: as §1
# [3] = system: SK-OV-3 human ovary carcinoma cells; experiment: In-vitro antiproliferative activity, MTT test; type: cell-based; settings: 5 days treatment, MTT on day 6, read-out: IC50, concentration necessary to reduce cell growth to 50% of control
# Method: as §1
# [4] = system: HBL-100 non-tumour line from healthy mammary ductal epithelium; experiment: In-vitro antiproliferative activity, MTT test; type: cell-based, human; settings: 5 days treatment, MTT on day 6, read-out: IC50, concentration necessary to reduce cell growth to 50% of control
# Method: as §1
# [5] = system: B16/F10 melanoma cells; experiment: In-vivo antiproliferative activity: liver metastases after intraspleen implant of B16/F10 melanoma; design: species or system BD2F1 mice; settings: for Animals free of macroscopically detectable liver metastases over total number of mice / Mice with metastases larger than 3 mm / Mice with more than 3 visible hepatic tumour nodules / Spleen weight: Day 21
# Method: BD2F1 mice weighing 18-20 g were implanted intraspleen (i.s) with 100.000 B16/F10 melanoma cells on Day 0, under sterile conditions and Zoletil® (70 mg/kg), anaesthesia, following surgical opening of peritoneum and spleen immobilisation. Tumour cells, suspended in diluted Matrigel® (150 μg/ml), were injected i.s. in a volume of 0.05 ml. The B16F10 melanoma cells were cultured in Modified Eagle Medium. Cells were maintained in a humidified 5% CO2 atmosphere at 37° C. Animals were then randomly divided into 5 groups (each of 7-8 female), implanted i.s. with 100.000 B16/F10 melanoma cells on Day 0, were treated i.v. (on Days 3, 6 and 9) with HA-MTX at 2, 1 and 0.50 mg/kg/day or MTX-Na at 8.5, 6 and 3 mg/kg/day. Doses are referred to equivalents of MTX. The data originate from 4 separate experiments.
# The evaluation of livers and counting of liver metastases under a low power stereo microscope equipped with a calibrated grid was performed on Day 21. Livers were then stored in formaldehyde for preparation for light microscopy observations.
# [6] = 3 mg MTX/kg/die i.v. on days 3, 6, 9
# [7] = 6 mg MTX/kg/die i.v. on days 3, 6, 9
# [8] = 8.5 mg MTX/kg/die i.v. on days 3, 6, 9
# [9] = 0.5 mg MTX/kg/die i.v. on days 3, 6, 9
# [10] = 1 mg MTX/kg/die i.v. on days 3, 6, 9
# [11] = 2 mg MTX/kg/die i.v. on days 3, 6, 9
compound,measurement,setting,value
6-O-Butyryl-6-O-methotrexyl-hyaluronic acid [Ex 24],IC50,[1],2160 nM
same,IC50,[2],1700 nM
same,IC50,[3],1670 nM
same,IC50,[4],2110 nM
6-O-acetyl-6-O-methotrexyl-hyaluronic acid [Ex 21],IC50,[1],2740 nM
same,IC50,[2],1970 nM
same,IC50,[3],1820 nM
same,IC50,[4],2050 nM
"CN(Cc1cnc2nc(N)nc(N)c2n1)c1ccc(C(=O)N[C@@H](CCC(=O)O)C(=O)O)cc1 [MTX-Na, methotrexate, reference compound]",IC50,[1],140 nM
same,IC50,[2],81 nM
same,IC50,[3],41 nM
same,IC50,[4],500 nM
same,Animals free of macroscopically detectable liver metastases over total number of mice,[5]; [6],6/16*
same,Mice with metastases larger than 3 mm,[5]; [6],19%
same,Mice with more than 3 visible hepatic tumour nodules,[5]; [6],38%
same,Spleen weight,[5]; [6],227 ± 36 mg
same,Animals free of macroscopically detectable liver metastases over total number of mice,[5]; [7],7/14**
same,Mice with metastases larger than 3 mm,[5]; [7],0%
same,Mice with more than 3 visible hepatic tumour nodules,[5]; [7],21%
same,Spleen weight,[5]; [7],159 ± 7 mg
same,Animals free of macroscopically detectable liver metastases over total number of mice,[5]; [8],8/16**
same,Mice with metastases larger than 3 mm,[5]; [8],0%
same,Mice with more than 3 visible hepatic tumour nodules,[5]; [8],13%
same,Spleen weight,[5]; [8],149 ± 24 mg
HA-MTX [Ex 18],Animals free of macroscopically detectable liver metastases over total number of mice,[5]; [9],6/15**
same,Mice with metastases larger than 3 mm,[5]; [9],13%
same,Mice with more than 3 visible hepatic tumour nodules,[5]; [9],27%
same,Spleen weight,[5]; [9],155 ± 16 mg
same,Animals free of macroscopically detectable liver metastases over total number of mice,[5]; [10],9/16***
same,Mice with metastases larger than 3 mm,[5]; [10],0%
same,Mice with more than 3 visible hepatic tumour nodules,[5]; [10],31%
same,Spleen weight,[5]; [10],199 ± 27 mg
same,Animals free of macroscopically detectable liver metastases over total number of mice,[5]; [11],14/14***^§
same,Mice with metastases larger than 3 mm,[5]; [11],0%^; 0%°
same,Mice with more than 3 visible hepatic tumour nodules,[5]; [11],0%^; 0%°
same,Spleen weight,[5]; [11],150 ± 37 mg
same,"Dose giving comparable liver metastasis reduction, as fraction of the MTX-Na dose",[5]; 1 and 0.5 mg/kg/day vs 6 and 3 mg/kg/day MTX-Na,⅙
same,Prevention of formation of liver metastasis,[5]; both after i.v. and i.p. administration,effective in preventing the formation of liver metastasis
same,Effect on liver metastases of B16/F10 melanoma,"[5]; i.v. 2 mg/kg/day (MTX equivalents) on days 3,6,9",complete disappearance of liver metastases
